Source: US20240373851A1, “PEST CONTROL COMPOSITION AND PEST CONTROL METHOD” (SUMITOMO CHEMICAL COMPANY, LIMITED, priority 2021, published 2024)

Assays:
Type in all cases: in vivo
[1] = test system: German cockroaches (Blattella germanica); experiment: Test Example 5: control test against German cockroaches, spray in chamber; settings: adult German cockroaches; 1.5 mL sprayed; concentration [%]: nicofluprole 0.01, imiprothrin 0.01, cyfluthrin 0.0002, alone or mixed; 45 minutes after spraying
Source text: Next, the usefulness of the inventive composition for controlling pests will be indicated by Test Examples.
(hereinafter referred to as expected value A)
(hereinafter referred to as expected value B)
In a plastic cup (diameter: 12.4 cm, height: 10.2 cm) lined with a filter paper, ten adult German cockroaches (Blattella germanica) (five males and five females each) […] were released, and the plastic cup was placed in the center of the bottom of a box-shaped chamber (46 cm×46 cm×70 cm in height). From the height of 60 cm, 1.5 mL of each of formulations prepared by dissolving a single agent of any one of nicofluprole, imiprothrin and cyfluthrin, or a mixed agent of two or more thereof in a mixture of isopropyl alcohol and Isopar M at a mixing ratio of 1:9 was sprayed under a spray pressure of 0.041 MPa. After a lapse of 45 minutes from spraying, the number of dead and moribund individuals was examined, and moribund and mortal rates (%) were determined by the above equation 3. The test was performed through two replicates. Dead individuals are completely immobile individuals, and moribund individuals are individuals who cannot get up when turned on their backs.

[2] = test system: German cockroaches (Blattella germanica); experiment: Test Example 1: control test against German cockroaches, spray in chamber (cup without filter paper); settings: adult German cockroaches; 1.5 mL sprayed; concentration [%]: broflanilide 0.01, imiprothrin 0.01, cypermethrin 0.01, alone or mixed; 120 minutes after spraying
Experimental: (§1) Next, the usefulness of the inventive composition for controlling pests will be indicated by Test Examples. In general, the control effect to be expected when treated with a mixture obtained by mixing given two or three types of active ingredient compounds is determined by the Colby's calculation equation represented by the following [Equation 1] and [Equation 2].
(§2) [formula] • P: moribund and mortal rates (%) when treated with an active ingredient compound X in the concentration of m [ppm] • Q: moribund and mortal rates (%) when treated with an active ingredient compound Y in the concentration of n [ppm] • EA: moribund and mortal rates (%) when treated with an active ingredient compound X in the concentration of m [ppm] and an active ingredient compound Y in the concentration of n [ppm] (hereinafter referred to as expected value A) […]
(§3) Regarding the synergistic effect of three types of the active ingredient compounds, in case where the moribund and mortal rates (%) when actually treated with a mixture obtained by mixing three types of the active ingredient compounds exceed the expected value A calculated by using the moribund and mortal rates (%) when actually treated with a mixture obtained by mixing two types of the active ingredient compounds among three types thereof, and the moribund and mortal rates (%) calculated when actually treated the remaining one type of the active ingredient compound, or the expected value B (%) calculated from the moribund and mortal rates (%) when actually treated with each of three types of the active ingredient compounds alone, it was determined that the synergistic effect exists.
In a plastic cup (diameter: 12.4 cm, height: 10.2 cm), ten adult German cockroaches (Blattella germanica) (five males and five females each) were released, and the plastic cup was placed in the center of the bottom of a box-shaped chamber (46 cm×46 cm×70 cm in height). […] After a lapse of 120 minutes from spraying, the number of dead and moribund individuals was examined, and moribund and mortal rates (%) were determined by the equation 3 below. […]

[3] = test system: German cockroaches (Blattella germanica); experiment: Test Example 4: control test against German cockroaches, spray in chamber; settings: adult German cockroaches; 1.5 mL sprayed; concentration [%]: nicofluprole 0.01, imiprothrin 0.01, deltamethrin 0.0002, alone or mixed; 45 minutes after spraying
Experimental: as §1, §2
as §3, with “exists. […]” for “exists.”

[4] = test system: German cockroaches (Blattella germanica); experiment: Test Example 11: control test against German cockroaches, spray in chamber; settings: adult German cockroaches; 1.5 mL sprayed; concentration [%]: isocycloseram 0.01, imiprothrin 0.01, permethrin 0.05, alone or mixed; 120 minutes after spraying
Experimental: as §1, §2
as §3, with “exists. […]” for “exists.”

C#CCN1CC(=O)N(COC(=O)[C@@H]2C(C=C(C)C)C2(C)C)C1=O (mixture of isomers) [Imiprothrin, imiprothrin]
Moribund and mortal rates [%] after 45 minutes [1]: 65%
Moribund and mortal rates [%] after 120 minutes [2]: 15%
Moribund and mortal rates [%] after 45 minutes [3]: 65%
Moribund and mortal rates [%] after 120 minutes [4]: 15%
